# Assay results taken from patent publication US20050143450A1, “Alkyl PCDF as a treatment for prostate cancer” (priority 2002, published 2005).
# Read-outs that look alike come from different tables or passages of the source.
# How the values were obtained:
# LNCaP cells = assay type: cell-based, human; conditions: six days; for growth of LNCaP cells in the presence of DHT: 10 nM DHT; for proliferation of LNCaP cells: absence of DHT, TCDD 1-100 nM
# Protocol: After trypsinization and low-speed centrifugation, LNCaP cells were resuspended and counted using a Coulter cell counter (Beckman Coulter, Fullerton, Calif.). Cells were seeded at a density of 5×10^4/35-mm well using DME-F12 without phenol red, supplemented with 2.5% charcoal-stripped fetal bovine serum (FBS). Twenty-four hours after seeding, initial treatment was applied and then subsequently reapplied with fresh medium every two days until harvesting by trypsinization. Cells were counted after harvesting using a Coulter counter.
# AR = target: T1, AR (Homo sapiens, UniProt P10275, T878A); assay type: cell-based; conditions: LNCaP, pPB; for effect on E2-induced luciferase activity: cotreatment with 10 nM E2
# T1 construct: AR protein levels in whole cell lysates were determined by Western blot analysis; endogenous in cells; host or cells: LNCaP
# T1 sequence (P10275 1-920 T878A): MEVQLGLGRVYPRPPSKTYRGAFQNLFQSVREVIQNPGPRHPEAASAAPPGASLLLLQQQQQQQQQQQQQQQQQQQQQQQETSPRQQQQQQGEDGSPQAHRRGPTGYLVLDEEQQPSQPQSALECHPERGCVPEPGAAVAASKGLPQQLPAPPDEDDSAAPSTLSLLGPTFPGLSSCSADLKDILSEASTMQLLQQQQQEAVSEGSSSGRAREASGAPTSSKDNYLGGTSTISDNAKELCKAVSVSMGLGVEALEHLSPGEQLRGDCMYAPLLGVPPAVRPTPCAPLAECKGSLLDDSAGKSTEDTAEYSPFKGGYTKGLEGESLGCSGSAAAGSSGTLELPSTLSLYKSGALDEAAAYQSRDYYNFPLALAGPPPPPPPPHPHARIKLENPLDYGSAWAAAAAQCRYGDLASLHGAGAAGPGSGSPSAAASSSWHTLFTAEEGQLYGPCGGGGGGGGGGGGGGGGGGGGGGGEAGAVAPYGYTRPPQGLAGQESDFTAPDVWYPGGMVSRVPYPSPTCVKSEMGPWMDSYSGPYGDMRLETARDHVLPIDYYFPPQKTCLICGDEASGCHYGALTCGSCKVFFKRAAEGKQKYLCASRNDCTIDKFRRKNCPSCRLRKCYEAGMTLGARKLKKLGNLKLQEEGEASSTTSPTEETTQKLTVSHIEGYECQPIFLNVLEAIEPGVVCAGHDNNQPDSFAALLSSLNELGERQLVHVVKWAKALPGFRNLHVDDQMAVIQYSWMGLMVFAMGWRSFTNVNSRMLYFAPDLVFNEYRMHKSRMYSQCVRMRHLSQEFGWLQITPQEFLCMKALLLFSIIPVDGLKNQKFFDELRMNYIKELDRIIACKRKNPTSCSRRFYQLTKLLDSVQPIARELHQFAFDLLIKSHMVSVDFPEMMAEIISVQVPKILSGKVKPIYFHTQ
# Protocol: (§1) After 24 h, cells were transfected using Lipofectamine and Plus reagents (Invitrogen) according to manufacturer's instructions. LNCaP and ZR-75 cells were transfected with 500 ng/well of either reporter plasmid, and 250 ng/well of pcDNA3.1-β-gal (Invitrogen) as the internal control. In addition, ZR-75 cells were transfected with 500 ng hAR. Twenty-four hours after treatment, cells were harvested by scraping with 200 μL/well of reporter lysis buffer. Lysates were centrifuged at 40,000 g and luciferase and β-galactosidase activity was assayed with 30 μL of the supernatant extract per sample using a Lumicount luminometer (PerkinElmer, Boston, Mass.). Luciferase activity was normalized to β-galactosidase activity for each transfection well.
# The transfected cells were then treated with hormone or AhR agonist alone or in combination and luciferase activity was determined as described in the above examples.
# 22Rv1 cells = assay: Growth inhibition of 22Rv1 prostate cancer cells; assay type: cell-based
# Protocol: 22Rv1 cells were treated with various concentrations of TCDD.
# In a second study, 22Rv1 cells were maintained in 10% serum, and various concentrations of 6-MCDF were added to the cells.
# [1] = test system: androgen-responsive probasin gene promoter (pPB); assay type: cell-based, human; conditions: ZR-75 cells, pPB alone
# Protocol: as §1, with “ZR-75 human breast cancer and LNCaP human prostate cancer cells were obtained from American Type Culture Collection (Manassas, Va.) and were maintained in RPMI 1640 medium supplemented with 10% FBS, 1% antibiotic/antimycotic solution, 1.5 g/L sodium bicarbonate, and 10 mM HEPES, final pH of 7.4. Cells were seeded at 2.75×10^5 per 22-mm well in DME-F12 without phenol red, supplemented with 2.5% charcoal-stripped fetal bovine serum (FBS). After” for “After”
# [2] = test system: ethoxyresorufin O-deethylase (EROD) activity in 22Rv1 cells; assay: Induction of EROD activity in 22Rv1 cells; assay type: cell-based; conditions: 24-hr treatment
# Protocol: An androgen responsive prostate cancer cell line 22Rv1 and an androgen nonresponsive prostate cancer cell line PC3 were treated with TCDD and ethoxyresorufin O-deethylase (EROD) activity was measured.
# [3] = test system: LNCaP prostate cancer cells; assay type: cell-based, human; conditions: 48 h
# Protocol: Cells were analyzed on a FACS Calibur (Becton Dickinson, San Jose, Calif.) flow cytometer, equipped with a 15 mW air-cooled argon laser, using CellQuest (Becton Dickinson) acquisition software. Propidium iodide (PI) fluorescence was collected through a 585/42-nm bandpass filter, and list mode data were acquired on a minimum of 12,000 single cells defined by a dot plot of PI-width versus PI-area. Data analysis was performed in ModFit LT (Verity Software House, Topsham, Me.) using PI-width versus PI-area to exclude cell aggregates.
# The effects of TCDD on cell cycle progression was also determined in LNCaP cells treated with 1.0, 10 and 100 nM TCDD for 48 h followed by FACS analysis (Table 1).
smiles,measurement,setting,value
"Cc1cc(Cl)cc2c1oc1cc(Cl)cc(Cl)c12 [6-MCDF, 6-methyl-1,3,8-trichlorodibenzofuran]",growth of LNCaP cells in the presence of DHT,LNCaP cells,inhibited growth
same,proliferation of LNCaP cells,LNCaP cells,growth inhibition was also observed
same,effect on E2-induced luciferase activity,AR; HPTE 10 μM,significantly decreased
same,induction of luciferase activity by AhR agonist alone,AR; MCDF 2 μM,did not significantly induce activity
same,22Rv1 cell proliferation,"22Rv1 cells; cells maintained in 10% serum, various concentrations",concentration-dependent decrease
same,reporter gene activity,[1],did not activate
"Clc1cc2c(cc1Cl)Oc1cc(Cl)c(Cl)cc1O2 [TCDD, 2,3,7,8-tetrachloro-p-dioxin]",EROD activity induction,[2],induced EROD activity
same,growth of LNCaP cells in the presence of DHT,LNCaP cells,inhibited growth
same,proliferation of LNCaP cells,LNCaP cells,significantly inhibited
same,cells in S phase,"[3]; 1.0, 10 and 100 nM",decrease
same,percentage of cells in G0/G1,"[3]; 1.0, 10 and 100 nM",small but significant increase
same,Percent Distribution G0/G1,[3]; 10^−7 M,77.500 ± 0.451%
same,Percent Distribution G2/M,[3]; 10^−7 M,8.943 ± 0.471%
same,Percent Distribution S,[3]; 10^−7 M,13.567 ± 0.176%
same,Percent Distribution G0/G1,[3]; 10^−8 M,75.367 ± 0.636%
same,Percent Distribution G2/M,[3]; 10^−8 M,10.300 ± 0.153%
same,Percent Distribution S,[3]; 10^−8 M,14.3 ± 0.666%
same,Percent Distribution G0/G1,[3]; 10^−9 M,74.300 ± 0.751%
same,Percent Distribution G2/M,[3]; 10^−9 M,10.633 ± 0.376%
same,Percent Distribution S,[3]; 10^−9 M,14.7 ± 0.520%
same,effect on DHT-induced luciferase activity,"AR; cotreatment with 10 nM DHT, MCDF 2 μM, HPTE 10 μM",significantly inhibited
same,effect on E2-induced luciferase activity,AR; HPTE 10 μM,significantly decreased
same,induction of luciferase activity by AhR agonist alone,AR; MCDF 2 μM,did not significantly induce activity
same,testosterone-induced growth of 22Rv1 cells,22Rv1 cells; 1 nM,inhibited
same,constitutive growth of 22Rv1 cells,22Rv1 cells; 1 nM alone,inhibited
same,reporter gene activity,[1],did not activate
